Reference: BindingDB's records for doi:10.1111/cbdd.12116 (University of Troms&#163, 2013)

Molecular target: Sodium-dependent serotonin transporter (Rattus norvegicus, UniProt P31652)
Assay: In vitro Binding Affinity Assay
Conditions: pH 7.7; 25 °C
Protocol: The assay was performed in accordance with the method described by Owens et al. with slight modifications. Rat cerebral cortex was homogenized in 30 volumes of ice-cold 50mM Tris-HCl containing 150mM NaCl and 5mM KCl, pH 7.7, at 25°C and centrifuged at 20,000 x g for 20 min. Pellet was resuspended in 30 volumes of buffer and centrifuged again for 2 more times. The mixture of 240uL of the tissue suspension, 30uL of 1µM imipramine, 30uL of 1nM [3H]-citalopram and 100µL of the analyzed compound (10^-10 to 10^-4M) were incubated at 22°C for 1 h. Incubations were terminated by vacuum filtration and washed twice with 100µL of ice-cold buffer. The radioactivity was measured using a WALLAC 1409 DSA liquid scintillation counter.

Sodium-dependent serotonin transporter, sequence (P31652 whole entry): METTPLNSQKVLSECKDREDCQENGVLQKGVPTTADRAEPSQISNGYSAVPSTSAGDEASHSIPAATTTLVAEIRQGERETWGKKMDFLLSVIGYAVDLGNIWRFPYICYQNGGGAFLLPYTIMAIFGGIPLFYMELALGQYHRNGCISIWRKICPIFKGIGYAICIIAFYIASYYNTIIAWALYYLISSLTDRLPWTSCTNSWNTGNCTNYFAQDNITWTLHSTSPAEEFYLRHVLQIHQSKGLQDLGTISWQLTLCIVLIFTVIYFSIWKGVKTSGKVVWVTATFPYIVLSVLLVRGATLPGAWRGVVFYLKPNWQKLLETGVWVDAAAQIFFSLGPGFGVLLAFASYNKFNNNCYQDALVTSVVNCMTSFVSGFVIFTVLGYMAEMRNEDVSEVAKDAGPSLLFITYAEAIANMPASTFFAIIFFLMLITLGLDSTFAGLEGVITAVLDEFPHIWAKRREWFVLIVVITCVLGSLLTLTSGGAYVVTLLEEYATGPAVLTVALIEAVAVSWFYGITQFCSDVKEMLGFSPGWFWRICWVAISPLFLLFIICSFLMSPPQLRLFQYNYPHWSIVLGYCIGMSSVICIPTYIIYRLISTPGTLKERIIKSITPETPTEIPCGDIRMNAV

## CCCCCCN1CCN(c2ccc3cc([N+](=O)[O-])ccc3n2)CC1 [2-(4-Hexyl-piperazin-1-yl)-6-nitroquinoline (6)]
  Ki: 72.9 nM

## CCCCCCCN1CCN(c2ccc3cc([N+](=O)[O-])ccc3n2)CC1 [2-(4-Heptyl-piperazin-1-yl)-6-nitroquinoline (7)]
  Ki: 54.1 nM

## CN1CCN(c2ccc3cc([N+](=O)[O-])ccc3n2)CC1 [2-(4-Methyl-piperazin-1-yl)-6-nitroquinoline (1)]
  Ki: 1300 nM

## CCCCCCCCCN1CCN(c2ccc3cc([N+](=O)[O-])ccc3n2)CC1 [2-(4-Nonyl-piperazin-1-yl)-6-nitroquinoline (9)]
  Ki: 1.8 nM

## CCCCCCCCCCCN1CCN(c2ccc3cc([N+](=O)[O-])ccc3n2)CC1 [2-(4-Undecyl-piperazin-1-yl)-6-nitroquinoline (11)]
  Ki: 12.6 nM

## CCCN1CCN(c2ccc3cc([N+](=O)[O-])ccc3n2)CC1 [2-(4-Propyl-piperazin-1-yl)-6-nitroquinoline (3)]
  Ki: 496 nM

## CCN1CCN(c2ccc3cc([N+](=O)[O-])ccc3n2)CC1 [2-(4-Ethyl-piperazin-1-yl)-6-nitroquinoline (2)]
  Ki: 86.1 nM

## CCCCN1CCN(c2ccc3cc([N+](=O)[O-])ccc3n2)CC1 [2-(4-Butyl-piperazin-1-yl)-6-nitroquinoline (4)]
  Ki: 24 nM

## CCCCCCCCCCN1CCN(c2ccc3cc([N+](=O)[O-])ccc3n2)CC1 [2-(4-Decyl-piperazin-1-yl)-6-nitroquinoline (10)]
  Ki: 4.5 nM

## CCCCCN1CCN(c2ccc3cc([N+](=O)[O-])ccc3n2)CC1 [2-(4-Pentyl-piperazin-1-yl)-6-nitroquinoline (5)]
  Ki: 80.5 nM

## CCCCCCCCN1CCN(c2ccc3cc([N+](=O)[O-])ccc3n2)CC1 [2-(4-Octyl-piperazin-1-yl)-6-nitroquinoline (8)]
  Ki: 20.8 nM

## CCCCCCCCCCCCN1CCN(c2ccc3cc([N+](=O)[O-])ccc3n2)CC1 [2-(4-Dodecyl-piperazin-1-yl)-6-nitroquinoline (12)]
  Ki: 16.1 nM
